20 molecules from US4415570A, “Nicotinic acid derivatives” (Nippon Shinyaku Co. Ltd., priority 1981, dated 1983) can be followed below.

Assay [1] relates to reversed passive Arthus reaction. The experiment in a line: Reversed passive Arthus reaction (RPAR) inhibition, leakage area of Evans Blue. To be noted: for RPAR inhibitory action: oral administration. In kind it is in vivo, rats. On the procedure: Activity of RPAR inhibition of the compounds of the present invention was measured in the following manner. Anti-BSA serum was obtained from rabbits that were previously administered bovine serum albumin ("BSA"). The anti-BSA serum was applied to four parts of the skin of the abdomens of rats previously treated with BSA and Evans Blue. The anti-BSA serum and the BSA and Evans Blue were administered to the rats subcutaneously. […] The local inflammation was determined by examining each of the four inflamed parts and measuring for each part the area from which there was leakage of Evans Blue. The data from the test animals were compared to the control animals, and a reduction in the leakage area of 20% or more was defined as a positive effect. The RPAR inhibition activity is reported as the number of positive effects per animal, divided by 4. Thus, two positive effects would be an RPAR of 2/4.

The next assay relates to carrageenin edema. The experiment in a line: carrageenin edema inhibiting activity. It is filed as in vivo. To be noted: intraperitoneal injection, 50 mg/kg. The text has this:
The RPAR inhibition activity of the compounds (I) of the present invention is not related to its anti-inflammatory activity.
In general terms: Carrageenan injected into the paw causes an acute inflammation.

The mark [2] stands for this setting: Table I, 200 mg/kg body weight orally, number of positive effects (leakage area reduced 20% or more) out of 4 parts.
Where [3] appears, read: Table 2, 500 mg/kg p.o., number of positive effects out of 4 parts.
[4] abbreviates: Table 2, 200 mg/kg p.o., number of positive effects out of 4 parts.

On to `O=C(Nc1nc(-c2ccc(Cl)cc2)nc(N2CCCC2)n1)c1cccnc1` [Compound 1], for which, in assay [1] (setting [2]), the “RPAR Inhibition” value is listed as 2/4.

For the molecule `O=C(Nc1nc(-c2ccc(Cl)cc2)nc(N2CCOCC2)n1)c1cccnc1` [Compound 2], in assay [1] (setting [2]), the “RPAR Inhibition” value is given as 2/4.

On to `O=C(Nc1nc(-c2ccccc2Cl)nc(N2CCCCC2)n1)c1cccnc1` [Compound 3], for which the “RPAR Inhibition” value in assay [1] (setting [2]) is given as 2/4.

Take `O=C(Nc1nc(-c2ccccc2Cl)nc(N2CCOCC2)n1)c1cccnc1` [Compound 4]: the “RPAR Inhibition” value in assay [1] (setting [2]) was 2/4.

For the molecule `O=C(Nc1nc(-c2ccccc2Cl)nc(N2CCCC2)n1)c1cccnc1` [Compound 5], the “RPAR Inhibition” value in assay [1] (setting [2]) is recorded as 2/4.

Take `CCCCNc1nc(NC(=O)c2cccnc2)nc(-c2ccc(Cl)c(Cl)c2)n1` [Compound 6]: the “RPAR Inhibition” value in assay [1] (setting [2]) is on record as 2/4.

On to `CCN(CC)c1nc(NC(=O)c2cccnc2)nc(-c2ccc(Cl)c(Cl)c2)n1` [Compound 7], for which the “RPAR Inhibition” value in assay [1] (setting [2]) is listed as 3/4.

Turning to `O=C(Nc1nc(-c2cc(Cl)ccc2Cl)nc(N2CCCCC2)n1)c1cccnc1` [Compound 8], in assay [1] (setting [2]), the “RPAR Inhibition” value is 3/4.

With `O=C(Nc1nc(-c2cc(Cl)ccc2Cl)nc(N2CCOCC2)n1)c1cccnc1` [Compound 9], the “carrageenin edema inhibiting activity” value with carrageenin edema came to 21%. Further, the “RPAR inhibition activity (in words)” value in assay [1] is recorded as “strongly inhibits RPAR”. The “RPAR Inhibition” value in assay [1] (setting [2]) is recorded as 4/4.

As to `CN(C)c1nc(NC(=O)c2cccnc2)nc(-c2ccc(F)cc2)n1` [Compound 10], in assay [1] (setting [2]), the “RPAR Inhibition” value is listed as 3/4.

For the molecule `Nc1nc(N)nc(-c2cc(Cl)ccc2Cl)n1` [Compound 11], the “RPAR inhibition activity (in words)” value in assay [1] is “do not exhibit RPAR inhibition activity at all”. The “RPAR Inhibition” value in assay [1] (setting [3]) was 0/4.

For the molecule `Nc1nc(N)nc(-c2ccc(Cl)cc2)n1` [Compound 12], in assay [1], the “RPAR inhibition activity (in words)” value is listed as “do not exhibit RPAR inhibition activity at all”. For the same molecule, the “RPAR Inhibition” value in assay [1] (setting [3]) was 0/4.

Consider `Nc1nc(NC(=O)c2cccnc2)nc(-c2ccccc2)n1` [Compound 13], for which, in assay [1], the “RPAR inhibition activity (in words)” value is listed as “little or no RPAR inhibition activity”. The “RPAR Inhibition” value in assay [1] (setting [4]) is on record as 0/4; in assay [1] (setting [3]), 2/4.

In the case of `Nc1nc(NC(=O)c2cccnc2)nc(-c2c(Cl)cccc2Cl)n1` [Compound 14], the “RPAR Inhibition” value in assay [1] (setting [4]) was 0/4.

On to `Nc1nc(NC(=O)c2cccnc2)nc(-c2ccc(Cl)cc2)n1` [Compound 15], for which the “carrageenin edema inhibiting activity” value in the assay on carrageenin edema is listed as 56.8%. Moreover, the “RPAR inhibition activity (in words)” value in assay [1] is listed as “no RPAR inhibition activity”. The “RPAR Inhibition” value in assay [1] (setting [4]) is 0/4.

Take `Nc1nc(NC(=O)c2cccnc2)nc(-c2cccc(Cl)c2)n1` [Compound 16]: the “RPAR Inhibition” value in assay [1] (setting [4]) was 0/4.

For `Nc1nc(NC(=O)c2cccnc2)nc(-c2ccccc2I)n1` [Compound 17], the “RPAR Inhibition” value in assay [1] (setting [4]) is 1/4.

Turning to `CC(=O)Oc1ccccc1C(=O)O` [aspirin], the RPAR inhibitory action result in assay [1] (200 mg/kg) is “no RPAR inhibitory action”.

`COc1ccc2c(c1)c(CC(=O)O)c(C)n2C(=O)c1ccc(Cl)cc1` [indomethacin]: the RPAR inhibitory action result in assay [1] (10 mg/kg) is given as “no RPAR inhibitory action”.

`CCCCC1C(=O)N(c2ccccc2)N(c2ccccc2)C1=O` [phenylbutazone]: the RPAR inhibitory action result in assay [1] (100 mg/kg) is “no RPAR inhibitory action”.
